Assay results taken from US20240018133A1, “MODULATORS OF THE INTEGRATED STRESS PATHWAY” (Calico Life Sciences LLC, priority 2019, published 2024).

Test system: ATF4 luciferase reporter (human full-length ATF4 5'-UTR fused to firefly luciferase) in HEK293T cells
Test: ATF4-Luc assay (in vitro model of VWMD): HEK293T cells carrying ATF4 luciferase reporter, tunicamycin-treated
Format: cell-based
Conditions: Homo sapiens, HEK-293T, 1 μg/mL tunicamycin, 7 hours, One Glo luminescence
Procedure, shortened: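 Stable HEK293T line with human ATF4 5′-UTR–firefly luciferase reporter treated with 1 μg/mL tunicamycin plus 200 nM compound for 7 h. Luminescence read; EC50 derived.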

Question: With O=C(COc1ccc(Cl)c(F)c1)NC12CC(NC(=O)[C@@H]3C=Cc4cc(Cl)ccc4O3)(C1)C2 [Compound 279, (2S)-6-chloro-N-{3-[2-(4-chloro-3-fluorophenoxy)acetamido]bicyclo[1.1.1]pentan-1-yl}-2H-1-benzopyran-2-carboxamide] as the compound, how does the EC50 read?
Answer: Its EC50 is less than 10 nM.

Question: Which EC50 does the source give for Cc1cc(Cl)cc2c(=O)cc(C(=O)NC34CC(NC(=O)COc5ccc(Cl)c(F)c5)(C3)C4)oc12 [Compound 282, 6-chloro-N-{3-[2-(4-chloro-3-fluorophenoxy)acetamido]bicyclo[1.1.1]pentan-1-yl}-8-methyl-4-oxo-4H-1-benzopyran-2-carboxamide] here?
Answer: Its EC50 is greater than 2000 nM.

Question: With COc1ccc2c(=O)cc(C(=O)NC34CC(NC(=O)COc5ccc(Cl)c(F)c5)(C3)C4)oc2c1 [Compound 283, N-{3-[2-(4-chloro-3-fluorophenoxy)acetamido]bicyclo[1.1.1]pentan-1-yl}-7-methoxy-4-oxo-4H-1-benzopyran-2-carboxamide] as the compound, how does the EC50 read?
Answer: Its EC50 is 10 to 50 nM.

Question: For Cc1ccc2c(=O)cc(C(=O)NC34CC(NC(=O)COc5ccc(Cl)c(F)c5)(C3)C4)oc2c1 [Compound 284, N-{3-[2-(4-chloro-3-fluorophenoxy)acetamido]bicyclo[1.1.1]pentan-1-yl}-7-methyl-4-oxo-4H-1-benzopyran-2-carboxamide], which EC50 is on record?
Answer: The EC50 was 10 to 50 nM.

Question: For Cc1cc2oc(C(=O)NC34CC(NC(=O)COc5ccc(Cl)c(F)c5)(C3)C4)cc(=O)c2cc1C [Compound 285, N-{3-[2-(4-chloro-3-fluorophenoxy)acetamido]bicyclo[1.1.1]pentan-1-yl}-6,7-dimethyl-4-oxo-4H-1-benzopyran-2-carboxamide], which EC50 is on record?
Answer: Its EC50 is less than 10 nM.

Question: How did the EC50 turn out when O=C(COc1ccc(Cl)c(F)c1)NC12CC(NC(=O)c3cc(=O)c4ccc(OC(F)F)cc4o3)(C1)C2 [Compound 286, N-{3-[2-(4-chloro-3-fluorophenoxy)acetamido]bicyclo[1.1.1]pentan-1-yl}-7-(difluoromethoxy)-4-oxo-4H-1-benzopyran-2-carboxamide] was run?
Answer: Its EC50 is 50 to 250 nM.

Question: For COc1ccc2oc(C(=O)NC34CC(NC(=O)COc5ccc(Cl)c(F)c5)(C3)C4)cc(=O)c2c1 [Compound 287, N-{3-[2-(4-chloro-3-fluorophenoxy)acetamido]bicyclo[1.1.1]pentan-1-yl}-6-methoxy-4-oxo-4H-1-benzopyran-2-carboxamide], which EC50 is on record?
Answer: The EC50 was 50 to 250 nM.

Question: O=C(COc1ccc(Cl)c(F)c1)NC12CC(NC(=O)c3cc(=O)c4cc(Cl)cc(Cl)c4o3)(C1)C2 [Compound 289, 6,8-dichloro-N-{3-[2-(4-chloro-3-fluorophenoxy)acetamido]bicyclo[1.1.1]pentan-1-yl}-4-oxo-4H-1-benzopyran-2-carboxamide] was tested. Which EC50 did it give?
Answer: Its EC50 is 500 to 2000 nM.

Question: CC(C)c1ccc2oc(C(=O)NC34CC(NC(=O)COc5ccc(Cl)c(F)c5)(C3)C4)cc(=O)c2c1 [Compound 290, N-{3-[2-(4-chloro-3-fluorophenoxy)acetamido]bicyclo[1.1.1]pentan-1-yl}-4-oxo-6-(propan-2-yl)-4H-1-benzopyran-2-carboxamide] was tested. Which EC50 did it give?
Answer: The EC50 was 10 to 50 nM.

Question: For O=C(COc1ccc(Cl)c(F)c1)NC12CC(NC(=O)c3cc(=O)c4ccc5c(c4o3)OCO5)(C1)C2 [Compound 291, N-{3-[2-(4-chloro-3-fluorophenoxy)acetamido]bicyclo[1.1.1]pentan-1-yl}-6-oxo-2H,6H-[1,3]dioxolo[4,5-h][1]benzopyran-8-carboxamide], which EC50 is on record?
Answer: Its EC50 is 50 to 250 nM.

Question: How did the EC50 turn out when O=C(COc1ccc(Cl)c(F)c1)NC12CC(NC(=O)c3cc(=O)c4cc(F)cc(F)c4o3)(C1)C2 [Compound 292, N-{3-[2-(4-chloro-3-fluorophenoxy)acetamido]bicyclo[1.1.1]pentan-1-yl}-6,8-difluoro-4-oxo-4H-1-benzopyran-2-carboxamide] was run?
Answer: Its EC50 is 50 to 250 nM.

Question: For O=C(COc1ccc(Cl)c(F)c1)NC12CC(NC(=O)c3cc(=O)c4cccc(Cl)c4o3)(C1)C2 [Compound 294, 8-chloro-N-{3-[2-(4-chloro-3-fluorophenoxy)acetamido]bicyclo[1.1.1]pentan-1-yl}-4-oxo-4H-1-benzopyran-2-carboxamide], which EC50 is on record?
Answer: The EC50 was 500 to 2000 nM.

Question: O=C(COc1ccc(Cl)c(F)c1)NC12CC(NC(=O)c3cc(=O)c4ccc(O)cc4o3)(C1)C2 [Compound 295, N-{3-[2-(4-chloro-3-fluorophenoxy)acetamido]bicyclo[1.1.1]pentan-1-yl}-7-hydroxy-4-oxo-4H-1-benzopyran-2-carboxamide] was tested. Which EC50 did it give?
Answer: Its EC50 is greater than 2000 nM.

Question: With CCC1(O)CC(C(=O)NC23CC(NC(=O)COc4ccc(Cl)c(F)c4)(C2)C3)Oc2ccc(Cl)cc21 (stereo not drawn) [Compound 297, 6-chloro-N-{3-[2-(4-chloro-3-fluorophenoxy)acetamido]bicyclo[1.1.1]pentan-1-yl}-4-ethyl-4-hydroxy-3,4-dihydro-2H-1-benzopyran-2-carboxamide] as the compound, how does the EC50 read?
Answer: Its EC50 is less than 10 nM.

Question: For O=C(COc1ccc(Cl)c(F)c1)NC12CC(NC(=O)C3C/C(=N\O)c4cc(F)ccc4O3)(C1)C2 (stereo not drawn) [Compound 298, N-{3-[2-(4-chloro-3-fluorophenoxy)acetamido]bicyclo[1.1.1]pentan-1-yl}-6-fluoro-4-(hydroxyimino)-3,4-dihydro-2H-1-benzopyran-2-carboxamide], which EC50 is on record?
Answer: Its EC50 is 10 to 50 nM.

Question: For O=C(COc1ccc(C(F)(F)F)nc1)NC12CC(NC(=O)[C@@H]3C[C@H](O)c4cc(Cl)ccc4O3)(C1)C2 [Compound 299, (2S,4S)-6-chloro-4-hydroxy-N-[3-(2-{[6-(trifluoromethyl)pyridin-3-yl]oxy}acetamido)bicyclo[1.1.1]pentan-1-yl]-3,4-dihydro-2H-1-benzopyran-2-carboxamide], which EC50 is on record?
Answer: The EC50 was 10 to 50 nM.

Question: O=C(COc1ccc(Cl)c(F)c1)NC12CC(NC(=O)C3CC(O)c4cc(F)ccc4O3)(C1)C2 (stereo not drawn) [Compound 300, N-{3-[2-(4-chloro-3-fluorophenoxy)acetamido]bicyclo[1.1.1]pentan-1-yl}-6-fluoro-4-hydroxy-3,4-dihydro-2H-1-benzopyran-2-carboxamide] was tested. Which EC50 did it give?
Answer: Its EC50 is less than 10 nM.

Question: CNC1CC(C(=O)NC23CCC(NC(=O)COc4ccc(Cl)c(F)c4)(CC2)[C@@H](O)C3)Oc2ccc(Cl)cc21 (stereo partly drawn) [Compound 303, 6-chloro-N-{(3S)-4-[2-(4-chloro-3-fluorophenoxy)acetamido]-3-hydroxybicyclo[2.2.2]octan-1-yl}-4-(methylamino)-3,4-dihydro-2H-1-benzopyran-2-carboxamide] was tested. Which EC50 did it give?
Answer: Its EC50 is less than 10 nM.

Question: Which EC50 does the source give for O=C(NC12CCC(NC(=O)C3CC(=O)c4cc(Cl)ccc4O3)(CC1)CC2)c1cnc(C(F)F)cn1 (stereo not drawn) [Compound 304, N-{4-[(6-chloro-4-oxo-3,4-dihydro-2H-1-benzopyran-2-carbonyl)amino]bicyclo[2.2.2]octan-1-yl}-5-(difluoromethyl)pyrazine-2-carboxamide] here?
Answer: Its EC50 is 500 to 2000 nM.

Question: Which EC50 does the source give for NC1CC(C(=O)NC23CC(NC(=O)COc4ccc(Cl)c(F)c4)(C2)C3)Oc2ccc(Cl)cc21 (stereo not drawn) [Compound 305, 4-amino-6-chloro-N-{3-[2-(4-chloro-3-fluorophenoxy)acetamido]bicyclo[1.1.1]pentan-1-yl}-3,4-dihydro-2H-1-benzopyran-2-carboxamide] here?
Answer: The EC50 was less than 10 nM.

Question: O=C(COc1ccc(Cl)c(F)c1)NC12CCC(NC(=O)[C@@H]3C[C@H](O)c4cc(Cl)ccc4O3)(CC1)CC2 [Compound 306, (2S,4S)-6-chloro-N-{4-[2-(4-chloro-3-fluorophenoxy)acetamido]bicyclo[2.2.2]octan-1-yl}-4-hydroxy-3,4-dihydro-2H-1-benzopyran-2-carboxamide] was tested. Which EC50 did it give?
Answer: The EC50 was 10 to 50 nM.
